With `CCCCOc1cccc(C[C@H](N)[C@H](O)CNCc2cccc(CC)c2)c1.Cl.Cl` the melting point was 197 to 199 °C.

`CCCCCCOc1cccc(C[C@H](NC(=O)c2coc(NS(C)(=O)=O)n2)[C@H](O)CNCc2cccc(CC)c2)c1` [Example 45, N-{(1S,2R)-3-[(3-ethylbenzyl)amino]-1-[3-(hexyloxy)benzyl]-2-hydroxypropyl}-2-[(methylsulfonyl)amino]-1,3-oxazole-4-carboxamide] showed a melting point of 85 to 90 °C.

For `CCCCOc1cccc(C[C@H](NC(=O)c2coc(NS(C)(=O)=O)n2)[C@H](O)CNCc2cccc(CC)c2)c1` [Example 50a, N-{(1S,2R)-1-(3-butoxybenzyl)-3-[(3-ethylbenzyl)amino]-2-hydroxypropyl}-2-[(methylsulfonyl)amino]-1,3-oxazole-4-carboxamide], the melting point was 78 to 80 °C.

With `CCCCOc1cccc(C[C@H](NC(C)=O)[C@H](O)CNCc2cccc(CC)c2)c1` [Example 50b, N-{(1S,2R)-1-(3-butoxybenzyl)-3-[(3-ethylbenzyl)amino]-2-hydroxypropyl}acetamide] the melting point was 112 to 114 °C.

With `CCCCCCOc1cccc(C[C@H](NC(=O)c2cccc(-c3ncco3)c2)[C@H](O)CNCc2cccc(CC)c2)c1` [Example 93A, N-{(1S,2R)-3-[(3-ethylbenzyl)amino]-1-[3-(hexyloxy)benzyl]-2-hydroxypropyl}-3-(1,3-oxazol-2-yl)benzamide] the melting point was 117 to 120 °C.

With `CCCCCCOc1cccc(C[C@H](NC(C)=O)[C@H](O)CNCc2cccc(CC)c2)c1` [Example 93B, N-{(1S,2R)-3-[(3-ethylbenzyl)amino]-1-[3-(hexyloxy)benzyl]-2-hydroxypropyl}acetamide] the melting point was 102 to 105 °C.
